Assay results published in PubChem BioAssay (NCI).
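Cultured in 96-well plates, cells were exposed to test compound for 48 hours across five concentrations. TGI marks complete inhibition of growth.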

These compounds were tested on NCI-H226 lung (assay: NCI-60 cell line screen, 48 h).
Compound COc1ccc2ccc3oc(=O)c(C)cc3c2c1 has a TGI greater than 100 µM.
For CCCCCCN(CCCCCC)C(=S)N/N=C(\C)c1ccccn1, the TGI was 2.27 µM.
Compound O=c1c(F)cn2c(=O)n1CCCCCCCn1c(=O)c(F)cn(c1=O)CCCCCCC2 has a TGI greater than 100 µM.
Cc1nnc2n(c1=O)CCCN2C gave a TGI greater than 100 µM.
O=C(ON=C1c2ccccc2C(Br)C(Br)c2ccccc21)c1ccccc1 (centres undefined) was tested, and the TGI was 34.1 µM.
For Nc1ncnc2c1nnn2C1C=CC(CP(=O)(O)O)C1 (centres undefined), the TGI was greater than 100 µM.
CC(=O)c1ccc(Oc2c3ccccc3nc3ccccc23)cc1 showed a TGI of 26.4 µM.
With Cn1c2ccccc2n2c3ncccc3c(=O)c(C#N)c12 the TGI was 4.65 µM.
Work on S=C(Cc1ccc2c(c1)Sc1ccccc1O2)N1CCOCC1 yielded a TGI greater than 100 µM.
For C[n+]1cc2cc(O)c(O)cc2c2ccc3cc(O)c(O)cc3c21, the TGI was greater than 48.2 µM.
COc1ccc(N=Nc2c(-c3c(OC)cc4occc4c3OC)[nH]c(=O)c(C#N)c2C)cc1 gave a TGI greater than 100 µM.
With O=C(/C=C/c1ccc(Cl)cc1)Oc1ccc(C=C2CCC/C(=C\c3ccc(OC(=O)/C=C/c4ccc(Cl)cc4)cc3)C2=O)cc1 the TGI was greater than 100 µM.
COc1ccc2c(c1)c1c(n2CCN2CCCCC2)-c2cccc(OC)c2CC1 gave a TGI of 24.1 µM.
With COc1ccc2nc(NC(=O)/C(C#N)=C/c3ccccc3)sc2c1 the TGI was greater than 100 µM.
Cc1c(C)n(-c2ccccc2)c2nc(S(C)=O)nc(S(C)=O)c12 (centres undefined) showed a TGI of 36.2 µM.
In the case of CC1(C)CC(=O)C2=C(C1)C(c1ccccc1Cl)C1C(=O)CC(C)(C)CC1(O)O2 (centres undefined), the TGI is reported as greater than 100 µM.
With Cn1nc(-c2ccc(S(=O)(=O)/N=C(\NN)Nc3ccc(Cl)cc3)s2)cc1C(F)(F)F the TGI was 32.6 µM.
Work on Cc1ccc2c(c1C)C(=O)C1(Cc3cc4c(cc3C1=O)CCC4)C2 (centres undefined) yielded a TGI greater than 100 µM.
CCCCI(O)OS(=O)(=O)c1ccc(C)cc1 showed a TGI greater than 100 µM.
C[C@@H]1CC[C@@]2(C)C(C(=O)O)=CCCC2[C@@]1(C)CC(=O)c1ccoc1 (some centres undefined) showed a TGI greater than 25 µM.
With O=C(CCc1cc(O)cc(O)c1)NCCc1cc(OCc2ccccc2)cc(OCc2ccccc2)c1 the TGI was 51.3 µM.
Clc1cccc(-c2sc(-c3cccs3)cc2Cc2cccs2)c1 gave a TGI greater than 10 µM.
c1ccc(C2=NC3OC2c2ccccc23)cc1 (centres undefined) was tested, and the TGI was greater than 10 µM.
CCOC(=O)CSc1nc(N)c2c(-c3ccccc3)c3c(nc2n1)CCCC3 was tested, and the TGI was greater than 100 µM.
With COC(=O)/C=C(/C=C1/C(C#N)=C(N)N(c2ccc(Cl)cc2)C1(C)/C(=C\C(=O)OC)C(=O)OC)C(=O)OC (centres undefined) the TGI was 86.4 µM.
O=c1c2c3c(sc2[nH]c(=S)n1-c1ccccc1)CCCc1ccc([N+](=O)[O-])cc1-3 was tested, and the TGI was greater than 100 µM.
CCOC(=O)c1c(N2CCCC2)[nH]c(=O)c(C(c2ccc(OC)cc2)c2c(O)c(C(=O)OCC)c(N3CCCC3)[nH]c2=O)c1O was tested, and the TGI was greater than 100 µM.
For CCOC1C=CC(=O)C(CO)O1 (centres undefined), the TGI was 46.3 µM.
Work on CN(C)C(=O)C(F)(F)C(c1ccc(F)cc1)C1C(=O)N(C)C(=O)N(C)C1=O (centres undefined) yielded a TGI greater than 100 µM.
Cc1c2cccc-2c2cc(O)c3ccccc3c2n1-c1ccc(N(C)C)cc1 gave a TGI of 24.4 µM.
Work on O=c1[nH]c(NCc2ccncc2)nc2nc[nH]c12 yielded a TGI greater than 100 µM.
O=CC(I)=C(c1ccccc1)c1ccccc1 gave a TGI of 57 µM.
Compound c1c[nH]c(-c2cccc3nsnc23)c1 has a TGI greater than 100 µM.
Cn1c2ccccc2c2ccc3c(c21)C(=O)c1ccc2c4ccccc4n(C)c2c1C3=O gave a TGI greater than 100 µM.
Cc1ccc(-c2cc(-c3ccco3)c(C#N)c(=S)[nH]2)cc1 showed a TGI greater than 100 µM.
Work on NS(=O)(=O)c1nnc(NC(=O)N(c2ccccc2)c2ccccc2)s1 yielded a TGI greater than 100 µM.
COCOc1ccc(C(=O)Oc2cccc3c2OC(C)(C)O3)c(OCOC)c1 gave a TGI greater than 100 µM.
With CN(C)CCN(c1ccccn1)c1ccccn1 the TGI was greater than 100 µM.
In the case of O=C(O)c1nc2ccc(C(F)(F)F)cc2[nH]c1=O, the TGI is reported as greater than 100 µM.
CN(CCN1CCCC1)C1CCc2cc(Cl)c(Cl)cc2C1 (centres undefined) showed a TGI of 34.8 µM.
Work on COC(=O)CNC(=O)C(CSC(=O)OCC1c2ccccc2-c2ccccc21)NC(=O)CCC(NC(=O)OCC1c2ccccc2-c2ccccc21)C(=O)OC (centres undefined) yielded a TGI greater than 100 µM.
With CC(C)NC(=O)OCc1c(COC(=O)NC(C)C)n(C)c2c1ccc1sccc12 the TGI was greater than 30.1 µM.
In the case of O=C(CC(NC(=O)C(F)(F)F)C(=O)O)OCc1ccccc1 (centres undefined), the TGI is reported as greater than 100 µM.
Work on CN(/N=C1\C(=O)Nc2ccccc21)c1ccccc1 yielded a TGI greater than 100 µM.

These compounds were tested on IGROV1 ovarian (assay: NCI-60 cell line screen, 48 h).
Work on COc1ccc2ccc3oc(=O)c(C)cc3c2c1 yielded a TGI greater than 100 µM.
Compound CCCCCCN(CCCCCC)C(=S)N/N=C(\C)c1ccccn1 has a TGI of 2.62 µM.
With O=c1c(F)cn2c(=O)n1CCCCCCCn1c(=O)c(F)cn(c1=O)CCCCCCC2 the TGI was greater than 100 µM.
For Cc1nnc2n(c1=O)CCCN2C, the TGI was greater than 100 µM.
O=C(ON=C1c2ccccc2C(Br)C(Br)c2ccccc21)c1ccccc1 (centres undefined) showed a TGI of 6.27 µM.
Compound Nc1ncnc2c1nnn2C1C=CC(CP(=O)(O)O)C1 (centres undefined) has a TGI greater than 100 µM.
CC(=O)c1ccc(Oc2c3ccccc3nc3ccccc23)cc1 showed a TGI of 17.4 µM.
Cn1c2ccccc2n2c3ncccc3c(=O)c(C#N)c12 was tested, and the TGI was greater than 100 µM.
S=C(Cc1ccc2c(c1)Sc1ccccc1O2)N1CCOCC1 gave a TGI greater than 100 µM.
Compound C[n+]1cc2cc(O)c(O)cc2c2ccc3cc(O)c(O)cc3c21 has a TGI of 4.75 µM.
With COc1ccc(N=Nc2c(-c3c(OC)cc4occc4c3OC)[nH]c(=O)c(C#N)c2C)cc1 the TGI was greater than 100 µM.
O=C(/C=C/c1ccc(Cl)cc1)Oc1ccc(C=C2CCC/C(=C\c3ccc(OC(=O)/C=C/c4ccc(Cl)cc4)cc3)C2=O)cc1 gave a TGI greater than 100 µM.
With COc1ccc2c(c1)c1c(n2CCN2CCCCC2)-c2cccc(OC)c2CC1 the TGI was 29.8 µM.
COc1ccc2nc(NC(=O)/C(C#N)=C/c3ccccc3)sc2c1 was tested, and the TGI was greater than 86.3 µM.
Cc1c(C)n(-c2ccccc2)c2nc(S(C)=O)nc(S(C)=O)c12 (centres undefined) showed a TGI of 17.2 µM.
CC1(C)CC(=O)C2=C(C1)C(c1ccccc1Cl)C1C(=O)CC(C)(C)CC1(O)O2 (centres undefined) was tested, and the TGI was greater than 100 µM.
Cn1nc(-c2ccc(S(=O)(=O)/N=C(\NN)Nc3ccc(Cl)cc3)s2)cc1C(F)(F)F was tested, and the TGI was 36 µM.
Work on Cc1ccc2c(c1C)C(=O)C1(Cc3cc4c(cc3C1=O)CCC4)C2 (centres undefined) yielded a TGI greater than 100 µM.
For CCCCI(O)OS(=O)(=O)c1ccc(C)cc1, the TGI was 73.8 µM.
Compound C[C@@H]1CC[C@@]2(C)C(C(=O)O)=CCCC2[C@@]1(C)CC(=O)c1ccoc1 (some centres undefined) has a TGI greater than 25 µM.
O=C(CCc1cc(O)cc(O)c1)NCCc1cc(OCc2ccccc2)cc(OCc2ccccc2)c1 showed a TGI of 31.4 µM.
Clc1cccc(-c2sc(-c3cccs3)cc2Cc2cccs2)c1 showed a TGI greater than 10 µM.
Work on c1ccc(C2=NC3OC2c2ccccc23)cc1 (centres undefined) yielded a TGI greater than 10 µM.
With CCOC(=O)CSc1nc(N)c2c(-c3ccccc3)c3c(nc2n1)CCCC3 the TGI was greater than 100 µM.
With COC(=O)/C=C(/C=C1/C(C#N)=C(N)N(c2ccc(Cl)cc2)C1(C)/C(=C\C(=O)OC)C(=O)OC)C(=O)OC (centres undefined) the TGI was 60.2 µM.
O=c1c2c3c(sc2[nH]c(=S)n1-c1ccccc1)CCCc1ccc([N+](=O)[O-])cc1-3 gave a TGI of 27.3 µM.
For CCOC1C=CC(=O)C(CO)O1 (centres undefined), the TGI was 27.6 µM.
Compound Cc1c2cccc-2c2cc(O)c3ccccc3c2n1-c1ccc(N(C)C)cc1 has a TGI of 14.5 µM.
In the case of O=c1[nH]c(NCc2ccncc2)nc2nc[nH]c12, the TGI is reported as greater than 100 µM.
Compound O=CC(I)=C(c1ccccc1)c1ccccc1 has a TGI of 37.5 µM.
c1c[nH]c(-c2cccc3nsnc23)c1 was tested, and the TGI was greater than 100 µM.
Cn1c2ccccc2c2ccc3c(c21)C(=O)c1ccc2c4ccccc4n(C)c2c1C3=O showed a TGI greater than 100 µM.
In the case of Cc1ccc(-c2cc(-c3ccco3)c(C#N)c(=S)[nH]2)cc1, the TGI is reported as greater than 100 µM.
NS(=O)(=O)c1nnc(NC(=O)N(c2ccccc2)c2ccccc2)s1 was tested, and the TGI was 52.6 µM.
In the case of COCOc1ccc(C(=O)Oc2cccc3c2OC(C)(C)O3)c(OCOC)c1, the TGI is reported as greater than 100 µM.
CN(C)CCN(c1ccccn1)c1ccccn1 gave a TGI greater than 100 µM.
With O=C(O)c1nc2ccc(C(F)(F)F)cc2[nH]c1=O the TGI was greater than 100 µM.
CN(CCN1CCCC1)C1CCc2cc(Cl)c(Cl)cc2C1 (centres undefined) gave a TGI of 29.3 µM.
With COC(=O)CNC(=O)C(CSC(=O)OCC1c2ccccc2-c2ccccc21)NC(=O)CCC(NC(=O)OCC1c2ccccc2-c2ccccc21)C(=O)OC (centres undefined) the TGI was 31.6 µM.
With CC(C)NC(=O)OCc1c(COC(=O)NC(C)C)n(C)c2c1ccc1sccc12 the TGI was 26.1 µM.
For O=C(CC(NC(=O)C(F)(F)F)C(=O)O)OCc1ccccc1 (centres undefined), the TGI was greater than 100 µM.
Work on CN(/N=C1\C(=O)Nc2ccccc21)c1ccccc1 yielded a TGI greater than 100 µM.

Each compound was assayed on MDA-MB-231 breast (assay: NCI-60 cell line screen, 48 h).
Compound COc1ccc2ccc3oc(=O)c(C)cc3c2c1 has a TGI greater than 100 µM.
In the case of CCCCCCN(CCCCCC)C(=S)N/N=C(\C)c1ccccn1, the TGI is reported as 2.76 µM.
Work on O=c1c(F)cn2c(=O)n1CCCCCCCn1c(=O)c(F)cn(c1=O)CCCCCCC2 yielded a TGI greater than 100 µM.
Compound Cc1nnc2n(c1=O)CCCN2C has a TGI greater than 100 µM.
Work on O=C(ON=C1c2ccccc2C(Br)C(Br)c2ccccc21)c1ccccc1 (centres undefined) yielded a TGI of 33.5 µM.
Work on Nc1ncnc2c1nnn2C1C=CC(CP(=O)(O)O)C1 (centres undefined) yielded a TGI greater than 100 µM.
In the case of CC(=O)c1ccc(Oc2c3ccccc3nc3ccccc23)cc1, the TGI is reported as 25.5 µM.
Cn1c2ccccc2n2c3ncccc3c(=O)c(C#N)c12 gave a TGI of 57.1 µM.
S=C(Cc1ccc2c(c1)Sc1ccccc1O2)N1CCOCC1 showed a TGI greater than 100 µM.
C[n+]1cc2cc(O)c(O)cc2c2ccc3cc(O)c(O)cc3c21 was tested, and the TGI was greater than 100 µM.
COc1ccc(N=Nc2c(-c3c(OC)cc4occc4c3OC)[nH]c(=O)c(C#N)c2C)cc1 gave a TGI greater than 100 µM.
Work on O=C(/C=C/c1ccc(Cl)cc1)Oc1ccc(C=C2CCC/C(=C\c3ccc(OC(=O)/C=C/c4ccc(Cl)cc4)cc3)C2=O)cc1 yielded a TGI greater than 100 µM.
In the case of COc1ccc2c(c1)c1c(n2CCN2CCCCC2)-c2cccc(OC)c2CC1, the TGI is reported as 36.6 µM.
COc1ccc2nc(NC(=O)/C(C#N)=C/c3ccccc3)sc2c1 showed a TGI greater than 100 µM.
In the case of Cc1c(C)n(-c2ccccc2)c2nc(S(C)=O)nc(S(C)=O)c12 (centres undefined), the TGI is reported as 17.3 µM.
For CC1(C)CC(=O)C2=C(C1)C(c1ccccc1Cl)C1C(=O)CC(C)(C)CC1(O)O2 (centres undefined), the TGI was greater than 100 µM.
Cn1nc(-c2ccc(S(=O)(=O)/N=C(\NN)Nc3ccc(Cl)cc3)s2)cc1C(F)(F)F showed a TGI of 32.2 µM.
Compound Cc1ccc2c(c1C)C(=O)C1(Cc3cc4c(cc3C1=O)CCC4)C2 (centres undefined) has a TGI greater than 100 µM.
